In patent publication US8088800B2, “4-(5-aminomethyl)-indole-1-ylmethyl)-benzamide derivatives and related compounds as opioid receptor antagonists for the treatment of obesity” (Eli Lilly and Company, priority 2004, dated 2012):

Columns and labels:
[1] = target: kappa opioid receptor (Homo sapiens, UniProt P41145); experiment: opioid receptor binding assay (Ki), kappa
[2] = target: mu opioid receptor (Homo sapiens, UniProt P35372); experiment: opioid receptor binding assay (Ki), mu
[3] = target: delta opioid receptor (Homo sapiens, UniProt P41143); experiment: opioid receptor binding assay (Ki), delta
delta opioid receptor, sequence (P41143 whole entry): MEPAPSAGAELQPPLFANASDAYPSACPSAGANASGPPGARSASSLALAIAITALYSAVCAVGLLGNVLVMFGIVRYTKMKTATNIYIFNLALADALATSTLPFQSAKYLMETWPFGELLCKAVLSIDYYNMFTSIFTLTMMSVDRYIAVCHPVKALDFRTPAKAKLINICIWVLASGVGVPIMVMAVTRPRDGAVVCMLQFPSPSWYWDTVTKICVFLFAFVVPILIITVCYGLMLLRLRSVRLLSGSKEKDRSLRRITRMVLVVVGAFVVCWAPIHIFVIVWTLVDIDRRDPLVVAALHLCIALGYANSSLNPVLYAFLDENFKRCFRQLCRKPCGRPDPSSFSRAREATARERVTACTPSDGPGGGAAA

[4] = target: T1, cloned human mu opioid receptor (Homo sapiens, UniProt P35372); experiment: GTP-γ-S binding assay, antagonist potency (Kb), mu; type: biochemical; details: functional antagonist potency vs DAMGO 1 micromolar; Cheng-Prusoff
T1 construct: expressed in transfected cells
T1 sequence (P35372 whole entry): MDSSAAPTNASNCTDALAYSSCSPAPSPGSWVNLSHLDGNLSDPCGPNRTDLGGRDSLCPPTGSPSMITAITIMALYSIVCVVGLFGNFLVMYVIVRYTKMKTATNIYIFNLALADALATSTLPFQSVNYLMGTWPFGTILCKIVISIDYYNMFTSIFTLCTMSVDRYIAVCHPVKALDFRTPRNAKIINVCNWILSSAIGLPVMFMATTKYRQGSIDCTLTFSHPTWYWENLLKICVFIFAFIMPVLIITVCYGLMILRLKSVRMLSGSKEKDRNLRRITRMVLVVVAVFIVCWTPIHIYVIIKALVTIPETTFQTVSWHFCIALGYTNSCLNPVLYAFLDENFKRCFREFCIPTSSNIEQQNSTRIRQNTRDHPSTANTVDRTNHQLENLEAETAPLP
Method: (§1) The functional antagonist potency (Kb) of the sample compounds was determined using the GTPγS binding assay. GTPgS-based functional assays provide an in vitro measure of the activity of opioid agonists and antagonists. Opioid reference compounds or test compound are incubated with membrane homogenate from cells expressing the cloned human mu, kappa or delta opioid receptor and radiolabeled [35S]GTPgS. If the compound activates the opioid receptor, an increase in the binding of radiolabeled GTPgS is observed. […] These tests provide an in vitro measurement of the activity of the compound at human opioid receptors.
(§2) An SPA-based GTP-γ-S assay format was developed based on previous opioid (Emmerson et al., J. Pharm Exp Ther 278,1121,1996; Horng et al., Society for Neuroscience Abstracts, 434.6, 2000) and muscarinic (DeLapp et al., JPET 289, 946, 1999) assay formats. Membranes were resuspended in 20 mM HEPES, 100 mM NaCl, 5 mM MgCl2, 1 mM DTT, and 1 mM EDTA. Fifty (50) […] of GTP-γ-[35S], compound, membrane suspension (20 microgram/well), and wheat germ agglutinin coated SPA beads (1 mg/well) were added to clear bottom 96 well assay plates. GDP ([…]) was added to the membrane solution prior to addition to the assay plates. Plates were sealed and incubated for four hours at room temperature then placed in a refrigerator overnight to allow the beads to settle. Signal stability at 4° C. was determined to be >60 hours. Plates were warmed to room temperature and counted in a Wallac Microbeta scintillation counter. For antagonist assays, specific agonists were added at the following concentrations: (MOR) DAMGO 1 micromolar, (DOR) DPDPE 30 nM, (KOR) U69593 300 nM. Kb's were determined by Cheng-Prusoff equation (see Cheng and Prusoff, Biochem. Pharmacol. 22, 3099, 1973).

[5] = target: T2, cloned human delta opioid receptor (Homo sapiens, UniProt P41143); experiment: GTP-γ-S binding assay, antagonist potency (Kb), delta; type: biochemical; details: functional antagonist potency vs DPDPE 30 nM; Cheng-Prusoff
T2 construct: expressed in transfected cells
T2 sequence (P41143 whole entry): as the sequence (P41143 whole entry) above
Method: as §1, §2

[6] = target: T3, cloned human kappa opioid receptor (Homo sapiens, UniProt P41145); experiment: GTP-γ-S binding assay, antagonist potency (Kb), kappa; type: biochemical; details: functional antagonist potency vs U69593 300 nM; Cheng-Prusoff
T3 construct: expressed in transfected cells
T3 sequence (P41145 whole entry): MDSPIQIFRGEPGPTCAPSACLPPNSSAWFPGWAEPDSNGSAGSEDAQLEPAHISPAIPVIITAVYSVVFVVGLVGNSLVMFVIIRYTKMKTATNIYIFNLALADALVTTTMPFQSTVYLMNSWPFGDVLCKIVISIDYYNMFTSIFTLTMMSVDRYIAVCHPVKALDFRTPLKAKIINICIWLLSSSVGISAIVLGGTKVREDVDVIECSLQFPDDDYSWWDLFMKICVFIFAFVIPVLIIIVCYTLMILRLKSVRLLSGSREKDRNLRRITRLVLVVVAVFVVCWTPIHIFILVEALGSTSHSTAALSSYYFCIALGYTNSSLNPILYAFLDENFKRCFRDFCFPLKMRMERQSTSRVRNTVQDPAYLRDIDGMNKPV
Method: as §1, §2

kappa opioid receptor, sequence (P41145 whole entry): as above
mu opioid receptor, sequence (P35372 whole entry): as the sequence (P35372 whole entry) above

Structure (SMILES)	Ki [1] [nM]	Ki [2] [nM]	Ki [3] [nM]	Kb [4] [nM]	Kb [5] [nM]	Kb [6] [nM]
NC(=O)c1ccc(Cn2ccc3cc(CNCCc4ccccc4F)ccc32)cc1 [Example 9, 4-(5-{[2-(2-Fluoro-phenyl)-ethylamino]-methyl}-indol-1-ylmethyl)-benzamide]	332	20.8	144	6.2	20.7	> 35
NC(=O)c1ccc(Cn2ccc3cc(CNCCCc4ccccc4)ccc32)cc1 [Example 8, 4-{5-[(3-Phenyl-propylamino)-methyl]-indol-1-ylmethyl}-benzamide]	304	59.3	633	–	–	–
CC(C)CCNCc1ccc2c(ccn2Cc2ccc(C(N)=O)cc2)c1 [Example 1, 4-{5-[(3-Methyl-butylamino)-methyl]-indol-1-ylmethyl}-benzamide]	362	18.1	170	4.2	21.7	59.9
CC(C)(C)CCNCc1ccc2c(ccn2Cc2ccc(C(N)=O)cc2)c1 [Example 3, 4-{5-[(3,3-Dimethyl-butylamino)-methyl]-indol-1-ylmethyl}-benzamide]	106	15.6	98.2	4.4	19.2	50.5
NC(=O)c1ccc(Cn2ccc3cc(CNCCO)ccc32)cc1 [Example 10, 4-{5-[(2-Hydroxy-ethylamino)-methyl]-indol-1-ylmethyl}-benzamide]	3190	478	> 5000	–	–	–
CCCCCCNCc1ccc2c(ccn2Cc2ccc(C(N)=O)cc2)c1 [Example 7, 4-(5-Hexylaminomethyl-indol-1-ylmethyl)-benzamide]	345	22.1	176	5.8	27.4	> 35

Continued, values first:

Ki [1] [nM]	Ki [2] [nM]	Ki [3] [nM]	Kb [4] [nM]	Kb [5] [nM]	Kb [6] [nM]	Structure (SMILES)
226	13.4	111	2.1	19.2	> 42	NC(=O)c1ccc(CN2CCc3cc(CNCCc4cccs4)ccc32)cc1 [Example 4, 4-{5-[(2-Thiophen-2-yl-ethylamino)-methyl]-2,3-dihydro-indol-1-ylmethyl}-benzamide]
387	24.5	259	3.3	24.3	> 42	CC(C)CCNCc1ccc2c(c1)CCN2Cc1ccc(C(N)=O)cc1 [Example 5, 4-{5-[(3-Methyl-butylamino)-methyl]-2,3-dihydro-indol-1-ylmethyl}-benzamide]
1110	319	2550	8.4	> 50	> 42	COc1ccc(CCNCc2ccc3c(ccn3Cc3ccc(C(N)=O)cc3)c2)cc1 [Example 11, 4-(5-{[2-(4-Methoxy-phenyl)-ethylamino]-methyl}-indol-1-ylmethyl)-benzamide]
340	20.5	193	4	20.3	21.4	CC(C)(C)CCNCc1ccc2c(c1)CCN2Cc1ccc(C(N)=O)cc1 [Example 6, 4-{5-[(3,3-Dimethyl-butylamino)-methyl]-2,3-dihydro-indol-1-ylmethyl}-benzamide]
411	21.3	154	2	15	50.1	NC(=O)c1ccc(Cn2ccc3cc(CNCCc4cccs4)ccc32)cc1 [Example 2, 4-{5-[(2-Thiophen-2-yl-ethylamino)-methyl]-indol-1-ylmethyl}-benzamide]
